Source: PubChem BioAssay (NCI)
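Dose response: 5 concentrations. Exposure: 48 h. Format: 96-well plates. Endpoint: linear interpolation; highest concentration if not reached. The concentration for 50% growth inhibition is given as GI50. Definition used: TGI = concentration required for complete inhibition of growth.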

System: K-562 leukemia
Assay: inhibition of tumour cell growth, NCI panel, 48 h

`CCCC[C@@H]1CCN2C[C@@H](O)[C@@H](O)[C@H]2[C@@H]1O` and `CCOC(=O)C(C)NC(=O)N(C)C12CC3CC(CC(C3)C1)C2` (centres undefined) cannot be ordered by TGI: greater than 100 µM for the first, greater than 500 µM for the second.

`O=C(NN1C(=O)CSC1c1ccc(Cl)c(Cl)c1)c1ccncc1` (centres undefined) and `CNc1ccc2c(c1)Cc1ccccc1-2` cannot be ordered by TGI: greater than 100 µM for the first, greater than 100 µM for the second.

`Clc1cccc(C2ON=C(c3ccccc3)N2C23CC4CC(CC(C4)C2)C3)c1Cl` (centres undefined) and `O=C1NN=C(c2c[nH]c3ccccc23)CC1NCc1ccccc1` (centres undefined) cannot be ordered by TGI: greater than 10 µM for the first, greater than 100 µM for the second.

`CCN(CC(=O)O)CC(=O)O` and `CCOC(=O)c1csc(NC(=O)CCCC#N)n1` cannot be ordered by TGI: greater than 100 µM for the first, greater than 100 µM for the second.

`O=c1cc(-c2ccccc2F)[nH]c2cc3c(cc12)OCO3` and `COc1ccc(CCCCl)c(C2=NCCc3ccccc32)c1` cannot be ordered by TGI: greater than 15.7 µM for the first, greater than 100 µM for the second.

Going from `CC(C)(C)c1ccc2c(c1)OCc1n[nH]c(n1)COc1cc(C(C)(C)C)ccc1OCCOCCO2` to `COC(=O)[C@H]1C=C[C@H](OC2OC(COC(C)=O)C(OC(C)=O)C(OC(C)=O)C2OC(C)=O)n2c(=O)n(-c3ccccc3)c(=O)n21` (some centres undefined), the TGI falls from greater than 100 µM to 4.91 µM.

`CCNC(=S)N/N=C/c1ccccn1` and `Nc1n[nH]c2ccccc12` cannot be ordered by TGI: greater than 100 µM for the first, greater than 100 µM for the second.

`O=C(CN=C(CN(c1ccccc1)c1ccccc1)Oc1c(Cl)cc(Cl)cc1Cl)n1cnc2ccccc21` and `O=c1c2cc3c(=O)n(CCc4ccccc4CO)c(=O)c3cc2c(=O)n1CCc1ccccc1CO` cannot be ordered by TGI: greater than 100 µM for the first, greater than 100 µM for the second.

`C=C1CC=CC(C)(C)C1C/C=C(\C)C(O)CBr` (centres undefined) and `COC(=O)C1=C(C(=O)OC)C2(C)CCC(=O)C1O2` (centres undefined) cannot be ordered by TGI: greater than 100 µM for the first, greater than 10 µM for the second.

`O=C(O)c1cc2ccccc2c(S(=O)(=O)O)c1O` and `CCc1cc(=O)n(/C(C)=C/c2ccccc2)n1C` cannot be ordered by TGI: greater than 100 µM for the first, greater than 100 µM for the second.

`Cc1cccc(NC(Nc2cccc(C)c2)=C(C(Cl)=C(Cl)Cl)[N+](=O)[O-])c1` and `C/C(=N\Nc1nc2ccccc2s1)c1cccnn1` cannot be ordered by TGI: greater than 100 µM for the first, greater than 100 µM for the second.

Compared with `FC(F)=C(c1ccc(-c2ccc(Cl)cc2)cc1)C(F)(F)F`, `N/C(CSCCSC/C(N)=N/O)=N\O` is higher in TGI: 71.9 µM for the first, greater than 100 µM for the second.

System: NCI-H23 lung
Assay: inhibition of tumour cell growth, NCI panel, 48 h

`CCOC(=O)C(NC(=O)c1ccc(N=NN(C)C)cc1)C(C)C` (centres undefined) and `CCOC(=O)C(C)NC(=O)N(C)C12CC3CC(CC(C3)C1)C2` (centres undefined) cannot be ordered by TGI: greater than 100 µM for the first, 441 µM for the second.

Going from `COc1cc(CCCOC2OC(COC3OCC(O)C(O)C3O)C(O)C(O)C2O)cc2cc(-c3ccc4c(c3)OCO4)oc12` (centres undefined) to `O=c1cc(-c2ccccc2F)[nH]c2cc3c(cc12)OCO3`, the TGI falls from greater than 175 µM to 6.8 µM.

First: c1ccc([P+](Cc2csnn2)(c2ccccc2)c2ccccc2)cc1
Second: CC[P+](C#Cc1ccccc1)(c1ccccc1)c1ccccc1
The TGI of the first is higher: greater than 100 µM for the first, 7.51 µM for the second.

`COc1cc2nc(-c3c(F)cccc3F)n(Cc3c(F)cccc3F)c2cc1Cc1c(F)cccc1F` and `O=C(CN=C(CN(c1ccccc1)c1ccccc1)Oc1c(Cl)cc(Cl)cc1Cl)n1cnc2ccccc21` cannot be ordered by TGI: greater than 100 µM for the first, greater than 100 µM for the second.

First: O=C(/C=C1\C[C@H]2C=Nc3ccccc3C(=O)N2C1)NCCCCCNC(=O)/C=C1\C[C@H]2C=Nc3ccccc3C(=O)N2C1
Second: O=C1NN=C(c2c[nH]c3ccccc23)CC1NCc1ccccc1 (centres undefined)
The TGI of the first is lower: 26.2 µM for the first, greater than 100 µM for the second.

`COc1cc2c(cc1O)CC[n+]1cc3c(OC)c(OC)ccc3cc1-2` and `COc1ccc(CCCCl)c(C2=NCCc3ccccc32)c1` cannot be ordered by TGI: greater than 100 µM for the first, greater than 100 µM for the second.

`CC(C)Cc1c(C#N)c(C#N)c(N)n1Cc1ccccc1` and `CCc1cc(=O)n(/C(C)=C/c2ccccc2)n1C` cannot be ordered by TGI: greater than 100 µM for the first, greater than 100 µM for the second.

First: Nc1nc(Nc2ccc(OCc3cccc(F)c3)cc2)c2c(n1)[nH]c1ccc(O)cc12
Second: O=c1oc2ccccc2c2nc3ccccc3cc12
The TGI of the first is lower: 22.2 µM for the first, greater than 100 µM for the second.

`CCC1(CC)C(=O)NC(=S)N=C1N` and `Nc1n[nH]c2ccccc12` cannot be ordered by TGI: greater than 100 µM for the first, greater than 100 µM for the second.

`CCCC[C@@H]1CCN2C[C@@H](O)[C@@H](O)[C@H]2[C@@H]1O` and `CCN(CC(=O)O)CC(=O)O` cannot be ordered by TGI: greater than 100 µM for the first, greater than 100 µM for the second.

`O=C(NN1C(=O)CSC1c1ccc(Cl)c(Cl)c1)c1ccncc1` (centres undefined) and `CNc1ccc2c(c1)Cc1ccccc1-2` cannot be ordered by TGI: greater than 100 µM for the first, greater than 100 µM for the second.

`Clc1cccc(C2ON=C(c3ccccc3)N2C23CC4CC(CC(C4)C2)C3)c1Cl` (centres undefined) and `C/C(=N\Nc1nc2ccccc2s1)c1cccnn1` cannot be ordered by TGI: greater than 10 µM for the first, 20.2 µM for the second.

`CCOC(=O)c1csc(NC(=O)CCCC#N)n1` and `COC(=O)C1=C(C(=O)OC)C2(C)CCC(=O)C1O2` (centres undefined) cannot be ordered by TGI: greater than 100 µM for the first, greater than 10 µM for the second.

`CC(C)(C)c1ccc2c(c1)OCc1n[nH]c(n1)COc1cc(C(C)(C)C)ccc1OCCOCCO2` and `COC(=O)[C@H]1C=C[C@H](OC2OC(COC(C)=O)C(OC(C)=O)C(OC(C)=O)C2OC(C)=O)n2c(=O)n(-c3ccccc3)c(=O)n21` (some centres undefined) are within 1.5-fold of each other in TGI: 12.5 µM for the first, 15.6 µM for the second.

First: CCNC(=S)N/N=C/c1ccccn1
Second: Cc1cccc(NC(Nc2cccc(C)c2)=C(C(Cl)=C(Cl)Cl)[N+](=O)[O-])c1
The TGI of the first is 3.6-fold higher: 84.8 µM for the first, 23.6 µM for the second.

`C=C1CC=CC(C)(C)C1C/C=C(\C)C(O)CBr` (centres undefined) and `N/C(CSCCSC/C(N)=N/O)=N\O` cannot be ordered by TGI: greater than 100 µM for the first, greater than 100 µM for the second.

`O=C(O)c1cc2ccccc2c(S(=O)(=O)O)c1O` and `O=c1c2cc3c(=O)n(CCc4ccccc4CO)c(=O)c3cc2c(=O)n1CCc1ccccc1CO` cannot be ordered by TGI: greater than 100 µM for the first, greater than 100 µM for the second.

Work on `FC(F)=C(c1ccc(-c2ccc(Cl)cc2)cc1)C(F)(F)F` yielded a TGI of 35.4 µM.

Molecule `Nc1nc(Nc2ccc(OCc3cccc(F)c3)cc2)c2c(n1)[nH]c1ccc(O)cc12` has a GI50 of 4.12 µM.

System: HS 578T breast
Assay: inhibition of tumour cell growth, NCI panel, 48 h

First: COc1cc2nc(-c3c(F)cccc3F)n(Cc3c(F)cccc3F)c2cc1Cc1c(F)cccc1F
Second: Nc1nc(Nc2ccc(OCc3cccc(F)c3)cc2)c2c(n1)[nH]c1ccc(O)cc12
The TGI of the first is higher: greater than 100 µM for the first, 6.29 µM for the second.

Going from `O=C(/C=C1\C[C@H]2C=Nc3ccccc3C(=O)N2C1)NCCCCCNC(=O)/C=C1\C[C@H]2C=Nc3ccccc3C(=O)N2C1` to `O=c1oc2ccccc2c2nc3ccccc3cc12`, the TGI falls from greater than 67.6 µM to 66.7 µM.

`COc1cc2c(cc1O)CC[n+]1cc3c(OC)c(OC)ccc3cc1-2` and `CC(C)Cc1c(C#N)c(C#N)c(N)n1Cc1ccccc1` cannot be ordered by TGI: greater than 100 µM for the first, greater than 100 µM for the second.

First: CC[P+](C#Cc1ccccc1)(c1ccccc1)c1ccccc1
Second: CCCC[C@@H]1CCN2C[C@@H](O)[C@@H](O)[C@H]2[C@@H]1O
The TGI of the first is lower: 7.77 µM for the first, greater than 100 µM for the second.

Work on `Nc1nc(Nc2ccc(OCc3cccc(F)c3)cc2)c2c(n1)[nH]c1ccc(O)cc12` yielded a GI50 of 2.41 µM.
